Assay results: patent US10259810B2, “N-sulfonylated pyrazolo[3,4-b]pyridin-6-carboxamides and method of use” (AbbVie S.à.r.l., priority 2015, dated 2019)
Where two headings read alike, the source gives them in different places.

What was measured:
Format in all cases: cell-based
CFTR ΔF508 = molecular target: T1, CFTR ΔF508 (Homo sapiens, UniProt P13569, DEL508-508); assay: Chronic TECC assay, primary bronchial epithelial cells of CF patients homozygous for CFTR ΔF508 (corrector, co-corrector and potentiator); conditions: chronic TECC
T1 construct: bronchial epithelial cells isolated from CF patients homozygous for the CFTR ΔF508 mutation; McGill University; Asterand; University of North Carolina hAEC-CF; host or cells: primary human bronchial epithelial cells from CF patients homozygous for ΔF508, differentiated at air-liquid interface
Description: Primary Bronchial Epithelial Cells Protocol
The TECC (Tranepithelial Clamp Circuit, EP-design) assay measures the functionality of the cystic fibrosis Transmembrane Conductance regulator (CFTR) by measuring the short circuit current (Isc) generated over the basolateral and apical membrane of lung epithelial cells. In TECC the transepithelial potential PD and transepithelial resistance (Rt) are measured in an open circuit and transformed to Ieq using Ohm's law. 24 Wells can be measured simultaneously allowing a higher throughput compared to Ussing chambers.
For this purpose, bronchial epithelial cells isolated from CF patients homozygous for the CFTR ΔF508 mutation (hAEC-CF, Epithelix, Geneva, Switzerland; McGill University, Montreal, Qc; Asterand, Detroit, Mich.; University of North Carolina, Chapel Hill, N.C.) are plated on type IV collagen-coated Transwell® supports (Costar).
For electrophysiological recording of the “chronic” experiments, the human airway epithelia are mounted in the TECC heating plate for electrophysiological measurement and kept at 37° C. The epithelia are bathed in a NaCl-Ringer solution (120 mM NaCl, 25 mM NaHCO3, 1.2 mM CaCl2, 1.2 mM MgCl2, 0.8 mM KH2PO4, 0.8 mM K2HPO4, pH 7.4, 5 mM glucose) on both the basolateral and apical sides. Test compounds (corrector, co-corrector, 4-[(2R,4R)-4-({[1-(2,2-difluoro-1,3-benzodioxol-5-yl)cyclopropyl]carbonyl}amino)-7-(difluoromethoxy)-3,4-dihydro-2H-chromen-2-yl]benzoic acid, and potentiator, N-(3-carbamoyl-5,5,7,7-tetramethyl-4,7-dihydro-5H-thieno[2,3-c]pyran-2-yl)-1H-pyrazole-5-carboxamide), are re-added to the recording solution prior to measurement. […] Apical amiloride is used to inhibit the endogenous ENaC currents while forskolin is applied on both apical and basolateral side to stimulate CFTR. Measurements are done during a 20 minute timeframe with recordings every 2 minutes. The increase in Ieq is used as a measure for the increased CFTR activity, EC50 values can be generated by measuring impact of different concentrations of compound on Ieq on primary cells, for this purpose each transwell is treated with a different compound concentration. […] Raw data were normalized to percentage activity values using the equation: 100×(Sample−Negative control)/(Positive control−Negative Control).

ΔF508-CFTR [1] = molecular target: T2, ΔF508-CFTR (Homo sapiens, UniProt P13569, DEL508-508); assay: CFTR cell surface levels using HRP-tagged ΔF508-CFTR expressing CFBE cells, in the presence of a co-corrector; conditions: HRP-tagged ΔF508-CFTR CFBE cells, in the presence of 3 μM co-corrector; for EC50: read-out: EC50
T2 construct: host or cells: CFBE41o-, doxycycline-inducible
Summary of the method: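 Chemiluminescent read-out of surface HRP (15 min, dark) after PBS washes. Activity is normalized as 100×(sample−DMSO)/(3 μM co-corrector alone−DMSO).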

ΔF508-CFTR [2] = molecular target: T2, ΔF508-CFTR; assay: CFTR cell surface levels using HRP-tagged ΔF508-CFTR expressing CFBE cells, intrinsic corrector capacity; set-up: % Activation: concentration or dose not given beside the values; conditions: HRP-tagged ΔF508-CFTR expressing CFBE41o- cells, compound alone (intrinsic corrector capacity), 20 hours at 33° C.; for EC50: read-out: EC50
Summary of the method: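 Read-out: chemiluminescent HRP activity of ECL4-HRP-tagged ΔF508-CFTR at the cell surface, 15 min substrate in dark. Normalized as 100×(sample−DMSO)/(positive control−DMSO).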

[3] = Ieq = calculations based on the maximum current, read-out: EC50 (nM) (Ieq*)
[4] = test compound at 1 μM, Ieq = calculations based on the maximum current

T2 sequence (P13569 with tags, fused parts or gaps DEL508-508): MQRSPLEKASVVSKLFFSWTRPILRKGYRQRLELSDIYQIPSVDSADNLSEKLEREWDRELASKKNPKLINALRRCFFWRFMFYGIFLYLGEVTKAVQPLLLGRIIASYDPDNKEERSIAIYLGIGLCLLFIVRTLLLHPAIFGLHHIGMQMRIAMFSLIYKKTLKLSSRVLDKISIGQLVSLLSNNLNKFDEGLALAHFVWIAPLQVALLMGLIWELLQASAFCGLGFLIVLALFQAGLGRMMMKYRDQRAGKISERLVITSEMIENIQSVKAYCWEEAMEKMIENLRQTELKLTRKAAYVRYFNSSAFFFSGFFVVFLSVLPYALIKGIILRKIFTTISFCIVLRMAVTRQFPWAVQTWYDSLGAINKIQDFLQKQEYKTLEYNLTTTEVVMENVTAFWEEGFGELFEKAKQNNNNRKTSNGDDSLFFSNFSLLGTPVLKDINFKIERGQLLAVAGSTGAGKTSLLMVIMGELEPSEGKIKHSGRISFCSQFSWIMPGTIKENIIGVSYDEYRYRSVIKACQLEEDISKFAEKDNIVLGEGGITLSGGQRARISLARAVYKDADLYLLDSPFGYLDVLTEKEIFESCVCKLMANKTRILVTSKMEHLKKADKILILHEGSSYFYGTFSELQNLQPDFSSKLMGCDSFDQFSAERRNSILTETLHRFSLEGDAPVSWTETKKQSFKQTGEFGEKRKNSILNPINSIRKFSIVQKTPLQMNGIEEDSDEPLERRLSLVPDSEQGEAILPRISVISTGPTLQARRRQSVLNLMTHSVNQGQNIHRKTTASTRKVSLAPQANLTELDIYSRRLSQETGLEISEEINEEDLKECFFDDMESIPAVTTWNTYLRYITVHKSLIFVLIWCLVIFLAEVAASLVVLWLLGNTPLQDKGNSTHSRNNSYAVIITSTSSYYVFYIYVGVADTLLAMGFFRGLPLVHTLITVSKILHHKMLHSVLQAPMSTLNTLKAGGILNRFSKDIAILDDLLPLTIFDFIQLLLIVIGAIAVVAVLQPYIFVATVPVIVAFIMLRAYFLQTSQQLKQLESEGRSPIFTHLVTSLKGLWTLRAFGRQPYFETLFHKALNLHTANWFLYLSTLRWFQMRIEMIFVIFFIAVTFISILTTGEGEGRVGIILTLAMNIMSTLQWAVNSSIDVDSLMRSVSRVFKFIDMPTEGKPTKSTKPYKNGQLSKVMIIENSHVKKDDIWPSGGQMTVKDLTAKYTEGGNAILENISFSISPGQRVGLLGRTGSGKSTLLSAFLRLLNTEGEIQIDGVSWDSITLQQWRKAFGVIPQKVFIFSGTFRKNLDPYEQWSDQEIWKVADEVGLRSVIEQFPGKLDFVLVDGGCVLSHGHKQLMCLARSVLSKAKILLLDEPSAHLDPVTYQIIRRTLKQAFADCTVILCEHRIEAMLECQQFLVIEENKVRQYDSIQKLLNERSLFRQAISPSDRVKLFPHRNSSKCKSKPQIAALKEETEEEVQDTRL
T1 sequence (P13569 with tags, fused parts or gaps DEL508-508): as above

Row | SMILES | EC50 (CFTR ΔF508; [3]) | % Activity at 1 μM (Ieq*) (CFTR ΔF508; [4]) | EC50 (CFTR ΔF508; AUC = full area under the curve upon forskolin stimulation, read-out: EC50 (nM) (AUC**)) | % Activity at 1 μM (AUC**) (CFTR ΔF508; test compound at 1 μM, AUC = full area under the curve upon forskolin stimulation) | % Activation (ΔF508-CFTR [1]) | % Activation (ΔF508-CFTR [2]) | EC50 (ΔF508-CFTR [1]) | EC50 (ΔF508-CFTR [2])
1 | COCCN(C)c1ccc(-c2cc(C(=O)NS(C)(=O)=O)nc3c2c(C2CCC2)nn3-c2ccccc2)cn1 [Compound 63, 3-cyclobutyl-N-(methanesulfonyl)-4-{6-[(2-methoxyethyl)(methyl)amino]pyridin-3-yl}-1-phenyl-1H-pyrazolo[3,4-b]pyridine-6-carboxamide] | 40 nM | 325% |  |  |  |  |  | 
2 | COCCN(C)c1ccc(-c2cc(C(=O)NS(C)(=O)=O)nc3c2c(C2CCC2)nn3-c2ccccc2)cc1 [Compound 75, 3-cyclobutyl-N-(methanesulfonyl)-4-{4-[(2-methoxyethyl)(methyl)amino]phenyl}-1-phenyl-1H-pyrazolo[3,4-b]pyridine-6-carboxamide] | 30 nM | 316% |  |  |  |  |  | 
3 | COC1CCN(c2cc(C(=O)NS(C)(=O)=O)nc3c2c(C2CCC2)nn3-c2ccccc2)CC1 [Compound 142, 3-cyclobutyl-N-(methanesulfonyl)-4-(4-methoxypiperidin-1-yl)-1-phenyl-1H-pyrazolo[3,4-b]pyridine-6-carboxamide] |  |  | < 300 nM | 250% |  |  |  | 
4 | CCS(=O)(=O)N(C)C(=O)c1cc(N2CCC(N3CCOCC3)CC2)c2c(C3CCC3)nn(-c3ccccc3)c2n1 [Compound 658, 3-cyclobutyl-N-(ethanesulfonyl)-N-methyl-4-[4-(morpholin-4-yl)piperidin-1-yl]-1-phenyl-1H-pyrazolo[3,4-b]pyridine-6-carboxamide] |  |  |  |  | 270.6% | 99.025% |  | 
5 | CN1CCCN(C(=O)c2cc(N3CCC(CN4CCCC4)CC3)c3c(C4CCC4)nn(-c4ccccc4)c3n2)S1(=O)=O [Compound 660, 2-(3-cyclobutyl-1-phenyl-4-{4-[(pyrrolidin-1-yl)methyl]piperidin-1-yl}-1H-pyrazolo[3,4-b]pyridine-6-carbonyl)-6-methyl-1λ^6,2,6-thiadiazinane-1,1-dione] |  |  |  |  | 172.1% | 34.92% | 235 nM | 932 nM
6 | O=C(c1cc(N2CCC(CN3CCCC3)CC2)c2c(C3CCC3)nn(-c3ccccc3)c2n1)N1CCCS1(=O)=O [Compound 661, 2-(3-cyclobutyl-1-phenyl-4-{4-[(pyrrolidin-1-yl)methyl]piperidin-1-yl}-1H-pyrazolo[3,4-b]pyridine-6-carbonyl)-1λ^6,2-thiazolidine-1,1-dione] |  |  |  |  | 227.45% | 67.125% | 135 nM | 155 nM
7 | CN(C(=O)c1cc(N2CCC(CN3CCCC3)CC2)c2c(C3CCC3)nn(-c3ccccc3)c2n1)S(C)(=O)=O [Compound 662, 3-cyclobutyl-N-(methanesulfonyl)-N-methyl-1-phenyl-4-{4-[(pyrrolidin-1-yl)methyl]piperidin-1-yl}-1H-pyrazolo[3,4-b]pyridine-6-carboxamide] |  |  |  |  | 346.65% | 134.35% | 104 nM | 124 nM
8 | O=C(c1cc(N2CCC(CN3CCCC3)CC2)c2c(C3CCC3)nn(-c3ccccc3)c2n1)N1CCCCS1(=O)=O [Compound 663, 2-(3-cyclobutyl-1-phenyl-4-{4-[(pyrrolidin-1-yl)methyl]piperidin-1-yl}-1H-pyrazolo[3,4-b]pyridine-6-carbonyl)-1λ^6,2-thiazinane-1,1-dione] |  |  |  |  | 206.5% | 57.9% | 103 nM | 234 nM
9 | CN1CCCN(C(=O)c2cc(N3CCC(N4CCOCC4)CC3)c3c(C4CCC4)nn(-c4ccccc4)c3n2)S1(=O)=O [Compound 664, 2-{3-cyclobutyl-4-[4-(morpholin-4-yl)piperidin-1-yl]-1-phenyl-1H-pyrazolo[3,4-b]pyridine-6-carbonyl}-6-methyl-1λ^6,2,6-thiadiazinane-1,1-dione] |  |  |  |  | 230.48% | 70.082% | 172 nM | 278 nM
10 | O=C(c1cc(N2CCC(N3CCOCC3)CC2)c2c(C3CCC3)nn(-c3ccccc3)c2n1)N1CCCS1(=O)=O [Compound 665, 2-{3-cyclobutyl-4-[4-(morpholin-4-yl)piperidin-1-yl]-1-phenyl-1H-pyrazolo[3,4-b]pyridine-6-carbonyl}-1λ^6,2-thiazolidine-1,1-dione] |  |  |  |  | 271.8% | 101.9% | 101 nM | 259 nM
11 | O=C(c1cc(N2CCC(N3CCOCC3)CC2)c2c(C3CCC3)nn(-c3ccccc3)c2n1)N1CCCCS1(=O)=O [Compound 666, 2-{3-cyclobutyl-4-[4-(morpholin-4-yl)piperidin-1-yl]-1-phenyl-1H-pyrazolo[3,4-b]pyridine-6-carbonyl}-1λ^6,2-thiazinane-1,1-dione] |  |  |  |  | 266.6% | 99.775% | 122 nM | 256 nM
12 | COCC1CCN(c2cc(C(=O)N3CCCS3(=O)=O)nc3c2c(C2CCC2)nn3-c2ccccc2)CC1 [Compound 667, 2-{3-cyclobutyl-4-[4-(methoxymethyl)piperidin-1-yl]-1-phenyl-1H-pyrazolo[3,4-b]pyridine-6-carbonyl}-1λ^6,2-thiazolidine-1,1-dione] |  |  |  |  | 225.5% | 75.435% | 85.5 nM | 208 nM
13 | COCC1CCN(c2cc(C(=O)N3CCCCS3(=O)=O)nc3c2c(C2CCC2)nn3-c2ccccc2)CC1 [Compound 668, 2-{3-cyclobutyl-4-[4-(methoxymethyl)piperidin-1-yl]-1-phenyl-1H-pyrazolo[3,4-b]pyridine-6-carbonyl}-1λ^6,2-thiazinane-1,1-dione] |  |  |  |  | 307.4% | 89.495% | 257 nM | 384 nM
14 | CNS(=O)(=O)NC(=O)c1cc(N2CCC(COC)CC2)c2c(C3CCC3)nn(-c3ccc(F)cc3)c2n1 [Compound 669, 3-cyclobutyl-1-(4-fluorophenyl)-4-[4-(methoxymethyl)piperidin-1-yl]-N-(methylsulfamoyl)-1H-pyrazolo[3,4-b]pyridine-6-carboxamide] |  |  |  |  | 394% | 334.9% | 244 nM | 211 nM
15 | COCCS(=O)(=O)NC(=O)c1cc(N2CCC(COC)CC2)c2c(C3CCC3)nn(-c3ccc(F)cc3)c2n1 [Compound 670, 3-cyclobutyl-1-(4-fluorophenyl)-N-(2-methoxyethanesulfonyl)-4-[4-(methoxymethyl)piperidin-1-yl]-1H-pyrazolo[3,4-b]pyridine-6-carboxamide] |  |  |  |  | 477.6% | 399.2% | 191 nM | 277 nM
16 | COCC1CCN(c2cc(C(=O)NS(=O)(=O)N3CCOCC3)nc3c2c(C2CCC2)nn3-c2ccc(F)cc2)CC1 [Compound 671, 3-cyclobutyl-1-(4-fluorophenyl)-4-[4-(methoxymethyl)piperidin-1-yl]-N-(morpholine-4-sulfonyl)-1H-pyrazolo[3,4-b]pyridine-6-carboxamide] |  |  |  |  | 346.1% | 252.95% | 107 nM | 274 nM
17 | COCC1CCN(c2cc(C(=O)NS(=O)(=O)CCCO)nc3c2c(C2CCC2)nn3-c2ccc(F)cc2)CC1 [Compound 672, 3-cyclobutyl-1-(4-fluorophenyl)-N-(3-hydroxypropane-1-sulfonyl)-4-[4-(methoxymethyl)piperidin-1-yl]-1H-pyrazolo[3,4-b]pyridine-6-carboxamide] |  |  |  |  | 422.4% | 362.9% | 127 nM | 331 nM
